Reference: patent US5567831A, “Non-steroidal sulfatase inhibitor compounds and their method of use” (Duguesne University of the Holy Ghost, priority 1995, dated 1996)

Assays:
[1] = rat, in vivo
[2] = biological target: T1, estrone sulfatase activity in intact MDA-MB-231 breast cancer cells (Homo sapiens, UniProt P08842); experiment: In vitro estrogen sulfatase assay on intact cell monolayers; type: cell-based; conditions: intact MDA-MB-231 monolayers, 18 hours at 37° C., [3H]E1S (2 nM), inhibitor 0.1 nM to 1 μM; read-out: apparent I.C. 50, concentration of the inhibitor to inhibit 50% of the sulfatase activity in the MDA-MB-231 cells
T1 construct: host or cells: MDA-MB-231
T1 sequence (P08842 22-583): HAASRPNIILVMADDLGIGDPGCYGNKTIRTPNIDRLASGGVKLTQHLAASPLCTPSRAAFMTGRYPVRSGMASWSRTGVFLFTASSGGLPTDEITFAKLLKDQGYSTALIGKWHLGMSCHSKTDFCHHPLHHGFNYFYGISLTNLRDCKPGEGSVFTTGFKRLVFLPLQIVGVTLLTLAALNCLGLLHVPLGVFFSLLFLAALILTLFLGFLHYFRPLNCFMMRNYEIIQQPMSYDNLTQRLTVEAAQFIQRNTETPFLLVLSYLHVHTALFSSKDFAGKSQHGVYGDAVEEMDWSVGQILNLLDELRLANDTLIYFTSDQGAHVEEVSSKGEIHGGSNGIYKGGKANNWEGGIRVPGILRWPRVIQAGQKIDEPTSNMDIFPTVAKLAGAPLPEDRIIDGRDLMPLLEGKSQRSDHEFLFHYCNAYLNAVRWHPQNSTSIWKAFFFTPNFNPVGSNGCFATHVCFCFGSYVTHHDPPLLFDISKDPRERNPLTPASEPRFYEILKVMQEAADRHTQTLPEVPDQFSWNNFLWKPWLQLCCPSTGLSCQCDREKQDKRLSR
Description: The in vitro sulfatase assay on intact cells involved a modification of the procedure of Duncan et al. ["Inhibition of estrone sulfatase activity by estrone 3-methylthiophosphonate", Cancer Res., Vol. 53, pp. 298-303 (1993)]. Intact nearly confluent monolayers of MDA-MB-231 (American Type Culture Collection) breast cancer cells in 6-well tissue-culture plates were washed with Hank's balanced salt solution (HBSS) and incubated for 18 hours at 37° C. with [^3 H]E1 S (5 pmol, 7×10^5 dpm) in serum-free Minimal Essential Medium (MEM) (2.5 ml) with or without test compounds (0.01 nM to 10 μM). After incubation, each dish was cooled and aliquots of the medium (0.5 ml) were pipetted into separate tubes containing 3 ml toluene. The mixture was shaken vigorously for 30 seconds and then centrifuged for 3 minutes at 2500 x g. Previous experiments have shown that >90% of estrone (E1) and <0.1% of […] (E1 S) is removed from the aqueous phase by this treatment. […] Radioactivity was determined using a Packard TriCarb scintillation counter with 50% efficiency for ^3 H. Each batch of experiments included dishes without cells (to assess apparent non-enzymatic hydrolysis of the substrate). […] Estrone sulfatase activity was determined from the amount of ^3 H-E1 tritiated estrone and ^3 H-E2 triated estradiol formed. […]

Row | IC50 [2] [nM] | SMILES | estrogenicity in uterine weight gain assay [1]
1 |  | C[C@]12CC[C@@H]3c4ccc(OS(N)(=O)=O)cc4CC[C@H]3[C@@H]1CCC2=O [estrone 3-0 sulfamate] | estrogenic
2 | 1 to 2 | CCCCCCCCCCCC(=O)NCCc1ccc(OS(N)(=O)=O)cc1 [N-lauroyl-(p-o-sulfamoyl) tyramine (C12), N-lauroyl-(p-o-sulfamoyl) tyramine] | 
